The results in this text go back to patent US20260327244A1, “PYRIDO[4,3-D]PYRIMIDINE COMPOUNDS” (Pfizer Inc., priority 2022, published 2026).

Where a name gives a salt, the structure may show the parent alone.

One data set deals with T1, WT NRAS (aa2-185) (Homo sapiens, UniProt P01111).
T1 construct: WT NRAS (aa2-185)
Nature of the data set: SPR binding assay, WT NRAS. Particulars: SPR at 10 °C, geometric mean when tested more than once. The text has this:
(§1) No additional regeneration was used.
(§2) Compound dissociation was monitored for at least 3600 seconds. […] No additional regeneration was used.

The target in a further data set is G12C KRAS (aa2-184) (Homo sapiens, UniProt P01116, G12C). Nature of the data set: biochemical.
G12C KRAS (aa2-184), sequence (P01116 2-184 isoform P01116-2 G12C): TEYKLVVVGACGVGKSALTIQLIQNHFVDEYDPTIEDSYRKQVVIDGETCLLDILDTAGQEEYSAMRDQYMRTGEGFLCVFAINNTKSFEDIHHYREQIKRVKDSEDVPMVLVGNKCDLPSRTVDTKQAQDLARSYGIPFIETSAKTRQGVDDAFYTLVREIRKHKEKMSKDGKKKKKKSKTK
Another data set addresses G12V KRAS (aa2-184) (Homo sapiens, UniProt P01116, G12V). Nature of the data set: biochemical.
Data set [1] addresses T2, wild-type (WT) KRAS (aa1-185) (Homo sapiens, UniProt P01116).
T2 construct: wild-type (WT) KRAS (aa1-185)
Nature of the data set: KRAS Surface Plasma Resonance (SPR) binding assay, WT KRAS. To be noted: SPR at 10 °C, geometric mean when tested more than once.
Text: as §1, §2

A further data set deals with G12D KRAS (aa1-185) (Homo sapiens, UniProt P01116, G12D). Nature of the data set: biochemical.
G12D KRAS (aa1-185), sequence (P01116 1-185 isoform P01116-2 G12D): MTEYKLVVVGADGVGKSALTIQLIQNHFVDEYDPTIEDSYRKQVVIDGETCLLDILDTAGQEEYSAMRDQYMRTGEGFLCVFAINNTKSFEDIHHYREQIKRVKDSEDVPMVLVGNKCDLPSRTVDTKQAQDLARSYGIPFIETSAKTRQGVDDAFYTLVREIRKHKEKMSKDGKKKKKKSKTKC
Another data set concerns the target T3, WT HRAS (aa2-184) (Homo sapiens, UniProt P01112).
T3 construct: WT HRAS (aa2-184)
The data set is described as follows: SPR binding assay, WT HRAS. Particulars: SPR at 10 °C, geometric mean when tested more than once.
Text: as §1, §2

The nature of data set [2]: Mouse PK study, unbound plasma exposure of Example 33 after oral dosing of female NSG mice. Type of data set: in vivo. How it is done:
FIG. 1 provides mouse PK study results showing unbound plasma concentrations of Example 33 in female NSG mouse plasma after oral dosing of female NSG Mice at 100 mg/kg (n=3, mean+/−SD). The solution of Example 33 was prepared using a Pluronic-based formulation [2.5% (w/v) Pluronic F-68 (Poloxamer 188)], and the suspension arms of both Example 33 and Example 34 were prepared using a 0.5% (w/v) methylcellulose formulation.
The solution formulation of Example 33 was an aqueous solution with 2.5% (w/v) Pluronic F-68 (Poloxamer 188). The amorphous suspension formulations of Example 33 and Example 34 were made using in 0.5% (w/v) methylcellulose in water.

T3 sequence (P01112 2-184): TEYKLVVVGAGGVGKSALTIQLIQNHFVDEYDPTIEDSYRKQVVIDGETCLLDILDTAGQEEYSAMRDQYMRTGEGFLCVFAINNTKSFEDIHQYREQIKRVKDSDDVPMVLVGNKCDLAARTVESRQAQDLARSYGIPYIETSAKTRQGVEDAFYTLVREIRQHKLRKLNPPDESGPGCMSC
T2 sequence (P01116 1-185 isoform P01116-2): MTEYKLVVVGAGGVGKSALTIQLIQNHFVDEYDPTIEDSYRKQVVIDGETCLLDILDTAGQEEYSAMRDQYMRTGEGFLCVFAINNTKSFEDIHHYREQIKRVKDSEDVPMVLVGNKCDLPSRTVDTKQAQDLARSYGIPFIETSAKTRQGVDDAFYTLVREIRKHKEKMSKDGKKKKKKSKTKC
T1 sequence (P01111 2-185): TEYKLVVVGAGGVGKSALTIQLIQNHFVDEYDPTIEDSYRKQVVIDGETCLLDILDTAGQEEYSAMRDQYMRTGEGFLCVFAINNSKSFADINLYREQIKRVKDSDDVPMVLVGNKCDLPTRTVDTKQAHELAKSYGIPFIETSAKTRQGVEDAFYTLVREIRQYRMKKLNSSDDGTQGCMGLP
G12V KRAS (aa2-184), sequence (P01116 2-184 isoform P01116-2 G12V): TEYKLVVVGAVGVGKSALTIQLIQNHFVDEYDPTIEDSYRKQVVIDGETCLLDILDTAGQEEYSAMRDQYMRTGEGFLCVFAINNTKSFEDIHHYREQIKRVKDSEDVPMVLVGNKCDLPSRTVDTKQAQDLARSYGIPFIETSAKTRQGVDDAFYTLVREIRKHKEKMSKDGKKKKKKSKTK
Experimental for G12C KRAS (aa2-184): (§3) SPR assay was used to measure the kinetic binding constant (KD) of Examples of the present invention.
(§4) The binding affinity and kinetics of Examples of the present invention were measured by Surface Plasmon Resonance (SPR) using Biacore 8K or 8K+ (Cytiva, Marlborough, MA) instruments. Recombinant, C-terminal site-specific biotinylated, wild-type (WT) KRAS (aa1-185), G12D KRAS (aa1-185), G12C KRAS (aa2-184), G12V KRAS (aa2-184), WT HRAS (aa2-184) and WT NRAS (aa2-185) proteins purified in presence of 1 μM GDP were used in these experiments. Binding measurements were performed parallelly in sets of either WT/G12D/G12C/G12V KRAS or WT K/H/N RAS proteins.
(§5) Biacore instrument was desorbed and docked with a Series S Sensor Chip SA. The proteins were diluted to 50 μg/mL with the assay buffer (50 mM HEPES, 150 mM NaCl, 10 μM GDP, 5 mM MgCl2, 0.5 mM TCEP, 5% glycerol, 0.02% Tween-20, 2% DMSO, pH 7.2) and immobilized at a flow rate of 3 μL/min at 10° C. with a contact time of 15 min. to capture ~3000-4000 RUs of proteins on the surface. The functionalized surface was then equilibrated with assay buffer for approximately 1 hour. Un-functionalized SA surfaces with no immobilized protein served as reference for binding kinetic analysis. Compound binding kinetics were measured in either multi-cycle or single-cycle kinetic format.
(§6) A 2-fold, 10-point serial dilution of test compounds was set-up in a 96-well microplate (Greiner; Cat #650101) with a top concentration of either 10 μM or 100 μM. Binding kinetics was measured at 10° C. by injecting serial dilution of compounds onto both reference and RAS immobilized channels at a flow rate of 100 μL/min and association time of 90 seconds. Compound dissociation was monitored for at least 400 seconds during each cycle. No additional regeneration was used. DMSO calibration curve was obtained before and after compound analysis by injecting 0-4% of DMSO in assay buffer. A suitable compound with known affinity and kinetics was tested once in every experiment as a positive control to assess activity of the captured protein on the surface.
(§7) A 3-fold, 6-point serial dilution of compounds was set-up in a deep 96-well microplate (Greiner Bio; Cat #780201) with the highest concentration of 1 μM (concentration range: 0.004-1 μM). Binding kinetics was measured at 10° C. by injecting serial dilutions of compounds in increasing order onto reference as well as RAS immobilized channels at a flow rate of 100 μL/min and association time of 120 seconds. Compound dissociation was monitored for at least 3600 seconds. Two buffer blanks were also run in a single-cycle kinetics format before the compound run for double referencing. No additional regeneration was used. DMSO calibration curve was obtained before and after compound analysis by injecting 0-4% of DMSO in the assay buffer. A suitable compound with known affinity and kinetics was tested once in every experiment as a positive control to assess activity of the captured protein on the surface.
(§8) Both MCK and SCK data were processed and analyzed using Biacore Insight evaluation software (Cytiva, Marlborough, MA)). […] The adequateness of the fit was judged by c^2 values and the randomness of residue distribution.
(§9) A geometric mean of binding constant KD was provided when an Example was tested more than once (n is testing replicate number).
Experimental for G12D KRAS (aa1-185): as §3, §4, §5, §6, §7, §8, §9
Experimental for G12V KRAS (aa2-184): as §3, §4, §5, §6, §7, §8, §9

What is called Kd is the constant that tells how readily two partners part at equilibrium. High values mean a looser complex, low ones a tighter complex. On to `C#Cc1cccc2cc(O)cc(-c3ncc4c(N5CC[C@H](CC#N)C5)nc(OC[C@@]56CCCN5C[C@H](F)C6)nc4c3F)c12` [Example 3, {(3R)-1-[7-(8-ethynyl-3-hydroxynaphthalen-1-yl)-8-fluoro-2-{[(2R,7aS)-2-fluorotetrahydro-1H-pyrrolizin-7a(5H)-yl]methoxy}pyrido[4,3-d]pyrimidin-4-yl]pyrrolidin-3-yl}acetonitrile], for which the Kd at WT NRAS (aa2-185) is greater than 10000 nM; at G12C KRAS (aa2-184) it was 11 nM; on G12V KRAS (aa2-184), 10.8 nM; in data set [1] it was 4.79 nM; on G12D KRAS (aa1-185) it was 12.3 nM; at WT HRAS (aa2-184), greater than 10000 nM.

Regarding `Oc1cc(-c2ncc3c(N4C[C@@H]5C[C@H](C4)[C@H](O)C5)nc(OC[C@@]45CCCN4C[C@H](F)C5)nc3c2F)c2c(F)c(F)ccc2c1` [Example 14, (1R,5R,6R)-3-[7-(7,8-difluoro-3-hydroxynaphthalen-1-yl)-8-fluoro-2-{[(2R,7aS)-2-fluorotetrahydro-1H-pyrrolizin-7a(5H)-yl]methoxy}pyrido[4,3-d]pyrimidin-4-yl]-3-azabicyclo[3.2.1]octan-6-ol], the Kd came out at 656 nM on WT NRAS (aa2-185); 0.263 nM on G12C KRAS (aa2-184); 0.461 nM at G12V KRAS (aa2-184); 0.006 nM in data set [1]; 0.092 nM at G12D KRAS (aa1-185); 198 nM at WT HRAS (aa2-184).

On WT HRAS (aa2-184), `C#Cc1c(F)ccc2cc(O)cc(-c3nc4c5c(nc(OC[C@@]67CCCN6C[C@H](F)C7)nc5c3F)N3CCCC[C@H]3CO4)c12` [Example 23, 5-ethynyl-6-fluoro-4-[(8aS)-4-fluoro-2-{[(2R,7aS)-2-fluorotetrahydro-1H-pyrrolizin-7a(5H)-yl]methoxy}-8,8a,9,10,11,12-hexahydro-7-oxa-1,3,6,12a-tetraazabenzo[4,5]cyclohepta[1,2,3-de]naphthalen-5-yl]naphthalen-2-ol] had a Kd of 473 nM.

`Oc1cc(-c2ncc3c(N4C[C@@H]5C[C@H](C4)[C@H](O)C5)nc(OC[C@@]45CCCN4C[C@H](F)C5)nc3c2F)c2c(Cl)cccc2c1` [Example 20, (1R,5R,6R)-3-[7-(8-chloro-3-hydroxynaphthalen-1-yl)-8-fluoro-2-{[(2R,7aS)-2-fluorotetrahydro-1H-pyrrolizin-7a(5H)-yl]methoxy}pyrido[4,3-d]pyrimidin-4-yl]-3-azabicyclo[3.2.1]octan-6-ol]: the Kd amounted to 1000 nM at WT NRAS (aa2-185); 0.629 nM at G12C KRAS (aa2-184); 0.098 nM on G12V KRAS (aa2-184); 0.075 nM in data set [1]; 0.138 nM at G12D KRAS (aa1-185); 725 nM at WT HRAS (aa2-184).

As for `CC(=O)N1CCN(c2nc(OC[C@@]34CCCN3C[C@H](F)C4)nc3c(F)c(-c4cc(O)cc5ccc(F)c(F)c45)ncc23)C[C@@H]1CC#N` [Example 13, {(2S)-1-acetyl-4-[7-(7,8-difluoro-3-hydroxynaphthalen-1-yl)-8-fluoro-2-{[(2R,7aS)-2-fluorotetrahydro-1H-pyrrolizin-7a(5H)-yl]methoxy}pyrido[4,3-d]pyrimidin-4-yl]piperazin-2-yl}acetonitrile], the Kd on WT NRAS (aa2-185) was greater than 10000 nM; on G12C KRAS (aa2-184) it was 7.56 nM; at G12V KRAS (aa2-184), 10.4 nM; in data set [1], 1.25 nM; at G12D KRAS (aa1-185) it was 59.8 nM; on WT HRAS (aa2-184) it was 8920 nM.

Take `C#Cc1c(F)ccc2cc(O)cc(-c3ncc4c(N5C[C@@H]6C[C@H](C5)[C@H](O)C6)nc(OC[C@@]56CCCN5C[C@H](F)C6)nc4c3F)c12` [Example 10, (1R,5R,6R)-3-[7-(8-ethynyl-7-fluoro-3-hydroxynaphthalen-1-yl)-8-fluoro-2-{[(2R,7aS)-2-fluorotetrahydro-1H-pyrrolizin-7a(5H)-yl]methoxy}pyrido[4,3-d]pyrimidin-4-yl]-3-azabicyclo[3.2.1]octan-6-ol]: the Kd on WT NRAS (aa2-185) came to 346 nM; on G12C KRAS (aa2-184), 0.681 nM; on G12V KRAS (aa2-184), 4.86 nM; in data set [1], 0.03 nM; on G12D KRAS (aa1-185) it was 0.297 nM; on WT HRAS (aa2-184), 71.5 nM.

For the molecule `C#Cc1c(F)ccc2cc(OCOP(=O)(O)O)cc(-c3nc4c5c(nc(OC[C@@]67CCCN6C[C@H](F)C7)nc5c3F)N3CCCOC[C@H]3CO4)c12` [Example 34, ({5-ethynyl-6-fluoro-4-[(8aS)-4-fluoro-2-{[(2R,7aS)-2-fluorotetrahydro-1H-pyrrolizin-7a(5H)-yl]methoxy}-8a,9,12,13-tetrahydro-8H,11H-7,10-dioxa-1,3,6,13a-tetraazanaphtho[1,8-ab]heptalen-5-yl]naphthalen-2-yl}oxy)methyl dihydrogen phosphate], in data set [2] (suspension, relative to Example 33 suspension, 100 mg (active)/kg oral), the “Cav Fold Increase” value is given as 10.4. Further, in data set [2] (unbound Example 33 in plasma, suspension (0.5% methylcellulose), single oral dose 100 mg (active)/kg), the “Cav, ss, u” value came out at 3.84 nM.

Turning to `N#C[C@@H]1CCCN1c1nc(OC[C@@]23CCCN2C[C@H](F)C3)nc2c(F)c(-c3cc(O)cc4ccc(F)c(F)c34)ncc12` [Example 11, (2S)-1-[7-(7,8-difluoro-3-hydroxynaphthalen-1-yl)-8-fluoro-2-{[(2R,7aS)-2-fluorotetrahydro-1H-pyrrolizin-7a(5H)-yl]methoxy}pyrido[4,3-d]pyrimidin-4-yl]pyrrolidine-2-carbonitrile], the Kd at G12C KRAS (aa2-184) came to 38.9 nM; on G12V KRAS (aa2-184) it was 98.7 nM; in data set [1], 19.7 nM; on G12D KRAS (aa1-185), 23.6 nM.

On to `Oc1cc(-c2ncc3c(N4C[C@@H]5C[C@H](O)[C@@H]5C4)nc(OC[C@@]45CCCN4C[C@H](F)C5)nc3c2F)c2c(Cl)cccc2c1` (relative stereo) [Example 22, (1R*,5S*,6S*)-3-[7-(8-chloro-3-hydroxynaphthalen-1-yl)-8-fluoro-2-{[(2R,7aS)-2-fluorotetrahydro-1H-pyrrolizin-7a(5H)-yl]methoxy}pyrido[4,3-d]pyrimidin-4-yl]-3-azabicyclo[3.2.0]heptan-6-ol], for which the Kd is 42.4 nM at G12C KRAS (aa2-184), 46.7 nM at G12V KRAS (aa2-184), 11.9 nM in data set [1] and 36.9 nM at G12D KRAS (aa1-185).

For `C#Cc1c(F)ccc2cc(O)cc(-c3nc4c5c(nc(OC[C@@]67CCCN6C[C@H](F)C7)nc5c3F)N(C)CCO4)c12` [Example 24, 5-ethynyl-6-fluoro-4-(4-fluoro-2-{[(2R,7aS)-2-fluorotetrahydro-1H-pyrrolizin-7a(5H)-yl]methoxy}-10-methyl-9,10-dihydro-8H-7-oxa-1,3,6,10-tetraazacyclohepta[1,2,3-de]naphthalen-5-yl)naphthalen-2-ol], the equilibrium dissociation constant (Kd) was found to be 0.079 nM on G12C KRAS (aa2-184), 0.052 nM on G12V KRAS (aa2-184), 0.145 nM in data set [1] and 0.081 nM at G12D KRAS (aa1-185).

As for `C#Cc1cccc2cc(O)cc(-c3ncc4c(N5CCN(C(C)=O)[C@@H](CC#N)C5)nc(OC[C@@]56CCCN5C[C@H](F)C6)nc4c3F)c12` [Example 4, {(2S)-1-acetyl-4-[7-(8-ethynyl-3-hydroxynaphthalen-1-yl)-8-fluoro-2-{[(2R,7aS)-2-fluorotetrahydro-1H-pyrrolizin-7a(5H)-yl]methoxy}pyrido[4,3-d]pyrimidin-4-yl]piperazin-2-yl}acetonitrile], the Kd on G12C KRAS (aa2-184) worked out at 1.94 nM; at G12V KRAS (aa2-184), 3.69 nM; in data set [1], 0.308 nM; at G12D KRAS (aa1-185), 14.1 nM.

On to `Oc1cc(-c2ncc3c(N4C[C@H]5C[C@@H](O)[C@H]5C4)nc(OC[C@@]45CCCN4C[C@H](F)C5)nc3c2F)c2c(Cl)cccc2c1` (relative stereo) [Example 21, (1S*,5R*,6R*)-3-[7-(8-chloro-3-hydroxynaphthalen-1-yl)-8-fluoro-2-{[(2R,7aS)-2-fluorotetrahydro-1H-pyrrolizin-7a(5H)-yl]methoxy}pyrido[4,3-d]pyrimidin-4-yl]-3-azabicyclo[3.2.0]heptan-6-ol], for which the Kd on G12C KRAS (aa2-184) is 1.9 nM; at G12V KRAS (aa2-184), 1.46 nM; in data set [1], 1.76 nM; on G12D KRAS (aa1-185), 1.01 nM.

On to `Oc1cc(-c2ncc3c(N4C[C@H]5CC[C@@H](C4)O5)nc(OC[C@@]45CCCN4C[C@H](F)C5)nc3c2F)c2c(F)c(F)ccc2c1` [Example 16, 5,6-difluoro-4-(8-fluoro-2-{[(2R,7aS)-2-fluorotetrahydro-1H-pyrrolizin-7a(5H)-yl]methoxy}-4-[(1R,5S)-8-oxa-3-azabicyclo[3.2.1]octan-3-yl]pyrido[4,3-d]pyrimidin-7-yl)naphthalen-2-ol, acetic acid salt], for which the Kd is greater than 10000 nM at WT NRAS (aa2-185); 8.57 nM on G12C KRAS (aa2-184); 5.73 nM on G12V KRAS (aa2-184); 5.82 nM in data set [1]; 23.8 nM at G12D KRAS (aa1-185); greater than 10000 nM on WT HRAS (aa2-184).

For the molecule `N#CC[C@@H]1CCCN(c2nc(OC[C@@]34CCCN3C[C@H](F)C4)nc3c(F)c(-c4cc(O)cc5ccc(F)c(F)c45)ncc23)C1` [Example 12, {(3S)-1-[7-(7,8-difluoro-3-hydroxynaphthalen-1-yl)-8-fluoro-2-{[(2R,7aS)-2-fluorotetrahydro-1H-pyrrolizin-7a(5H)-yl]methoxy}pyrido[4,3-d]pyrimidin-4-yl]piperidin-3-yl}acetonitrile], the Kd amounted to 1000 nM on WT NRAS (aa2-185); 1.13 nM at G12C KRAS (aa2-184); 0.117 nM on G12V KRAS (aa2-184); 0.022 nM in data set [1]; 0.045 nM at G12D KRAS (aa1-185); 606 nM on WT HRAS (aa2-184).
